# Results as given in ChEMBL document CHEMBL1124186, “Synthesis and evaluation of tylosin-related macrolides modified at the aldehyde function: a new series of orally effective antibiotics” (1988).
# Key:
# [1] = tested on: Haemophilus influenzae; experiment: In vitro antimicrobial activity against Haemophilus influenzae.; assay type: functional
# [2] = tested on: Staphylococcus aureus; experiment: In vitro antimicrobial activity against Staphylococcus aureus X1; assay type: functional
# [3] = tested on: Streptococcus pyogenes; experiment: In vivo effective dose against experimental infections in rodent caused by Streptococcus pyogenes C203 when administered sc; assay type: functional
# [4] = tested on: Streptococcus pneumoniae; experiment: In vitro antimicrobial activity against Streptococcus pneumoniae; assay type: functional
# [5] = tested on: Staphylococcus epidermidis; experiment: In vitro antimicrobial activity against Staphylococcus epidermidis EPI1; assay type: functional
# [6] = tested on: Enterococcus faecium; experiment: In vitro antimicrobial activity against Streptococcus faecium X66; assay type: functional, streptococcus fae-cium
# [7] = tested on: Streptococcus pyogenes; experiment: In vitro antimicrobial activity against Streptococcus pyogenes C203; assay type: functional
# [8] = tested on: Streptococcus pyogenes; experiment: In vivo effective dose against experimental infections in rodent caused by Streptococcus pyogenes C203 when administered orally; assay type: functional; settings: po
Compound,MIC [1],MIC [2],ED50 [3],MIC [4],MIC [5],MIC [6],MIC [7],ED50 [8]
CC[C@H]1OC(=O)C[C@@H](O)[C@H](C)[C@@H](O[C@@H]2O[C@H](C)[C@@H](O)[C@H](N(C)C)[C@H]2O)[C@@H](CCOc2cccnc2)C[C@@H](C)C(=O)/C=C/C(C)=C/[C@@H]1CO[C@@H]1O[C@H](C)[C@@H](O)[C@@H](OC)[C@H]1OC,16 µg/mL,0.5 µg/mL,3.9 mg/kg,2 µg/mL,0.5 µg/mL,16 µg/mL,2 µg/mL,50 mg/kg
CC[C@H]1OC(=O)C[C@@H](O)[C@H](C)[C@@H](O[C@@H]2O[C@H](C)[C@@H](O)[C@H](N(C)C)[C@H]2O)[C@@H](CCOS(=O)c2ccccc2)C[C@@H](C)C(=O)/C=C/C(C)=C/[C@@H]1CO[C@@H]1O[C@H](C)[C@@H](O)[C@@H](OC)[C@H]1OC (stereo partly specified),8 µg/mL,0.25 µg/mL,5 mg/kg,–,0.25 µg/mL,4 µg/mL,0.25 µg/mL,45 mg/kg
CC[C@H]1OC(=O)C[C@@H](O)[C@H](C)[C@@H](O[C@@H]2O[C@H](C)[C@@H](O)[C@H](N(C)C)[C@H]2O)[C@@H](CCOc2ccc(CN3CCCCCC3)cc2)C[C@@H](C)C(=O)/C=C/C(C)=C/[C@@H]1CO[C@@H]1O[C@H](C)[C@@H](O)[C@@H](OC)[C@H]1OC,32 µg/mL,0.5 µg/mL,1.9 mg/kg,1 µg/mL,0.5 µg/mL,8 µg/mL,0.5 µg/mL,27 mg/kg
CC[C@H]1OC(=O)C[C@@H](O)[C@H](C)[C@@H](O[C@@H]2O[C@H](C)[C@@H](O)[C@H](N(C)C)[C@H]2O)[C@@H](CCNCCc2ccccc2)C[C@@H](C)C(=O)/C=C/C(C)=C/[C@@H]1CO,8 µg/mL,4 µg/mL,7.2 mg/kg,1 µg/mL,4 µg/mL,8 µg/mL,2 µg/mL,> 100 mg/kg
CC[C@H]1OC(=O)C[C@@H](O)[C@H](C)[C@@H](O[C@@H]2O[C@H](C)[C@@H](O)[C@H](N(C)C)[C@H]2O)[C@@H](CC=O)C[C@@H](C)C(=O)/C=C/C(C)=C/[C@@H]1CO[C@@H]1O[C@H](C)[C@@H](O)[C@@H](O)[C@H]1OC,8 µg/mL,2 µg/mL,1.8 mg/kg,0.25 µg/mL,2 µg/mL,4 µg/mL,0.25 µg/mL,81 mg/kg
CC[C@H]1OC(=O)C[C@@H](O)[C@H](C)[C@@H](O[C@@H]2O[C@H](C)[C@@H](O)[C@H](N(C)C)[C@H]2O)[C@@H](CCI)C[C@@H](C)C(=O)/C=C/C(C)=C/[C@@H]1CO[C@@H]1O[C@H](C)[C@@H](O)[C@@H](OC)[C@H]1OC,32 µg/mL,0.5 µg/mL,4.3 mg/kg,4 µg/mL,0.25 µg/mL,16 µg/mL,0.5 µg/mL,19 mg/kg
CCOC(=O)NN(CC[C@H]1C[C@@H](C)C(=O)/C=C/C(C)=C/[C@H](CO[C@@H]2O[C@H](C)[C@@H](O)[C@@H](OC)[C@H]2OC)[C@@H](CC)OC(=O)C[C@@H](O)[C@H](C)[C@H]1O[C@@H]1O[C@H](C)[C@@H](O)[C@H](N(C)C)[C@H]1O)C(=O)OCC,32 µg/mL,0.5 µg/mL,2.1 mg/kg,1 µg/mL,0.5 µg/mL,16 µg/mL,1 µg/mL,> 5 mg/kg
CC[C@H]1OC(=O)C[C@@H](O)[C@H](C)[C@@H](O[C@@H]2O[C@H](C)[C@@H](O)[C@H](N(C)C)[C@H]2O)[C@@H](CCOS(=O)(=O)c2ccc(C)cc2)C[C@@H](C)C(=O)/C=C/C(C)=C/[C@@H]1CO[C@@H]1O[C@H](C)[C@@H](O)[C@@H](OC)[C@H]1OC,32 µg/mL,0.5 µg/mL,3.1 mg/kg,1 µg/mL,0.5 µg/mL,8 µg/mL,1 µg/mL,5 mg/kg
CC[C@H]1OC(=O)C[C@@H](O)[C@H](C)[C@@H](O[C@@H]2O[C@H](C)[C@@H](O)[C@H](N(C)C)[C@H]2O)[C@@H](CCN2CCCCCCC2)C[C@@H](C)C(=O)/C=C/C(C)=C/[C@@H]1CO[C@@H]1O[C@H](C)[C@@H](O)[C@@H](O)[C@H]1OC,32 µg/mL,1 µg/mL,1.8 mg/kg,0.5 µg/mL,1 µg/mL,16 µg/mL,0.5 µg/mL,100 mg/kg
CC[C@H]1OC(=O)C[C@@H](O)[C@H](C)[C@@H](O[C@@H]2O[C@H](C)[C@@H](O)[C@H](N(C)C)[C@H]2O)[C@@H](CCOc2cc(Cl)cc(Cl)c2)C[C@@H](C)C(=O)/C=C/C(C)=C/[C@@H]1CO[C@@H]1O[C@H](C)[C@@H](O)[C@@H](OC)[C@H]1OC,32 µg/mL,0.25 µg/mL,> 10 mg/kg,1 µg/mL,0.25 µg/mL,4 µg/mL,0.12 µg/mL,31 mg/kg
CC[C@H]1OC(=O)C[C@@H](O)[C@H](C)[C@@H](O[C@@H]2O[C@H](C)[C@@H](O)[C@H](N(C)C)[C@H]2O)[C@@H](CCOc2ccc([N+](=O)[O-])cc2)C[C@@H](C)C(=O)/C=C/C(C)=C/[C@@H]1CO[C@@H]1O[C@H](C)[C@@H](O)[C@@H](OC)[C@H]1OC,16 µg/mL,0.5 µg/mL,–,1 µg/mL,0.5 µg/mL,4 µg/mL,1 µg/mL,5 mg/kg
CC[C@H]1OC(=O)C[C@@H](O)[C@H](C)[C@@H](O[C@@H]2O[C@H](C)[C@@H](O[C@H]3C[C@@](C)(O)[C@@H](O)[C@H](C)O3)[C@H](N(C)C)[C@H]2O)[C@@H](CCOc2ccccc2)C[C@@H](C)C(=O)/C=C/C(C)=C/[C@@H]1CO[C@@H]1O[C@H](C)[C@@H](O)[C@@H](O)[C@H]1OC,> 128 µg/mL,2 µg/mL,> 10 mg/kg,32 µg/mL,2 µg/mL,> 128 µg/mL,4 µg/mL,91 mg/kg
CC[C@H]1OC(=O)C[C@@H](O)[C@H](C)[C@@H](O[C@@H]2O[C@H](C)[C@@H](O[C@H]3C[C@@](C)(O)[C@@H](O)[C@H](C)O3)[C@H](N(C)C)[C@H]2O)[C@@H](CCN2CCCCCCC2)C[C@@H](C)C(=O)/C=C/C(C)=C/[C@@H]1CO[C@@H]1O[C@H](C)[C@@H](O)[C@@H](OC)[C@H]1OC,128 µg/mL,4 µg/mL,> 10 mg/kg,8 µg/mL,4 µg/mL,> 128 µg/mL,2 µg/mL,44 mg/kg
CC[C@H]1OC(=O)C[C@@H](O)[C@H](C)[C@@H](O[C@@H]2O[C@H](C)[C@@H](O[C@H]3C[C@@](C)(O)[C@@H](O)[C@H](C)O3)[C@H](N(C)C)[C@H]2O)[C@@H](CCNCCc2ccccc2)C[C@@H](C)C(=O)/C=C/C(C)=C/[C@@H]1CO[C@@H]1O[C@H](C)[C@@H](O)[C@@H](OC)[C@H]1OC,64 µg/mL,1 µg/mL,9.1 mg/kg,8 µg/mL,2 µg/mL,128 µg/mL,1 µg/mL,76 mg/kg
CC[C@H]1OC(=O)C[C@@H](O)[C@H](C)[C@@H](O[C@@H]2O[C@H](C)[C@@H](O)[C@H](N(C)C)[C@H]2O)[C@@H](CCO)C[C@@H](C)C(=O)/C=C/C(C)=C/[C@@H]1CO[C@@H]1O[C@H](C)[C@@H](O)[C@@H](OC)[C@H]1OC,32 µg/mL,2 µg/mL,2.1 mg/kg,4 µg/mL,2 µg/mL,32 µg/mL,4 µg/mL,> 100 mg/kg
CC[C@H]1OC(=O)C[C@@H](O)[C@H](C)[C@@H](O[C@@H]2O[C@H](C)[C@@H](O)[C@H](N(C)C)[C@H]2O)[C@@H](CCN)C[C@@H](C)C(=O)/C=C/C(C)=C/[C@@H]1CO[C@@H]1O[C@H](C)[C@@H](O)[C@@H](OC)[C@H]1OC,128 µg/mL,4 µg/mL,> 10 mg/kg,32 µg/mL,8 µg/mL,128 µg/mL,32 µg/mL,> 100 mg/kg
CC[C@H]1OC(=O)C[C@@H](O)[C@H](C)[C@@H](O[C@@H]2O[C@H](C)[C@@H](O)[C@H](N(C)C)[C@H]2O)[C@@H](CCO)C[C@@H](C)C(=O)/C=C/C(C)=C/[C@@H]1CO[C@@H]1O[C@H](C)[C@@H](O)[C@@H](O)[C@H]1OC,32 µg/mL,8 µg/mL,8.9 mg/kg,2 µg/mL,4 µg/mL,64 µg/mL,2 µg/mL,> 100 mg/kg
CC[C@H]1OC(=O)C[C@@H](O)[C@H](C)[C@@H](O[C@@H]2O[C@H](C)[C@@H](O)[C@H](N(C)C)[C@H]2O)[C@@H](CCOc2ccccc2)C[C@@H](C)C(=O)/C=C/C(C)=C/[C@@H]1CO[C@@H]1O[C@H](C)[C@@H](O)[C@@H](O)[C@H]1OC,32 µg/mL,0.25 µg/mL,3.2 mg/kg,1 µg/mL,0.25 µg/mL,4 µg/mL,0.25 µg/mL,50 mg/kg
CC[C@H]1OC(=O)C[C@@H](O)[C@H](C)[C@@H](O[C@@H]2O[C@H](C)[C@@H](O)[C@H](N(C)C)[C@H]2O)[C@@H](CCNCCc2ccccc2)C[C@@H](C)C(=O)/C=C/C(C)=C/[C@@H]1CO[C@@H]1O[C@H](C)[C@@H](O)[C@@H](OC)[C@H]1OC,8 µg/mL,0.5 µg/mL,> 1.6 mg/kg,1 µg/mL,0.5 µg/mL,8 µg/mL,0.25 µg/mL,55 mg/kg
CC[C@H]1OC(=O)C[C@@H](O)[C@H](C)[C@@H](O[C@@H]2O[C@H](C)[C@@H](O)[C@H](N(C)C)[C@H]2O)[C@@H](CCOc2ccc(OC(C)=O)cc2)C[C@@H](C)C(=O)/C=C/C(C)=C/[C@@H]1CO,16 µg/mL,1 µg/mL,> 30 mg/kg,0.5 µg/mL,0.5 µg/mL,2 µg/mL,1 µg/mL,> 100 mg/kg
CCOC(C[C@H]1C[C@@H](C)C(=O)/C=C/C(C)=C/[C@H](CO[C@@H]2O[C@H](C)[C@@H](O)[C@@H](OC)[C@H]2OC)[C@@H](CC)OC(=O)C[C@@H](O)[C@H](C)[C@H]1O[C@@H]1O[C@H](C)[C@@H](O)[C@H](N(C)C)[C@H]1O)OCC,16 µg/mL,0.5 µg/mL,3.4 mg/kg,4 µg/mL,1 µg/mL,8 µg/mL,0.5 µg/mL,35 mg/kg
